Measured values: US10925286B2, “Synergistic chalcone containing composition of a nematicide” (TELLURIS BIOTECH INDIA PRIVATE LIMITED, priority 2017, dated 2021)

What was measured:
M. incognita eggs = test: Egg hatching experiment, 96-well plate, 10 eggs per well, 16 days; assay type: in vivo, Meloidogyne incognita
Description: (§1) Tomato plants were inoculated with M. incognita juveniles and maintained in a growth chamber. After at least two months, the M. incognita eggs were extracted from the roots for experiments. The procedure followed for extracting M. incognita eggs is explained below.
(§2) The root tissues were either chopped by hand using a surgical blade and a watch glass, or it was chopped up using a food processor. The chopped tissue was then placed in a bottle and washed with a 10% dilution of bleach. Under sterile conditions, the root solution was then poured through sieves (60 count sieve on top, 500 count sieve on the bottom). The crude egg collection was collected from the bottom of the 500 count sieve into 5 mL each of bleach and egg mixture in 15 mL Falcon tubes. 5 mL of 70% sucrose solution was then placed in each Falcon tube. A 1 mL layer of double distilled sterile water was then gently placed on top of the sucrose mixtures in each Falcon tube. The samples were then centrifuged for 5 minutes at 1200 rpm. The embryos that were suspended between the sucrose solution and the 1 mL water layer were collected in a total of 3 mL (top layer of 3 mL of the solution) from each Falcon tube into fresh 15 mL Falcon tubes. 10 mL of a 5% bleach solution was added and the eggs were vortexed for 10 minutes. The Falcon tubes were then centrifuged for 5 minutes at 2000 rpm. The supernatant was then removed, and the eggs were rinsed in 10 mL of sterile double distilled water and re-centrifuged for 5 minutes at 2000 rpm. This process was repeated two more times. After the last wash, 5 mL of supernatant was removed, while the remaining 5 mL of water was mixed with the eggs and placed into a 5 mL Petri dish. The eggs were then placed in an incubator at 25-27° C., and juvenile worms (J2 stage) hatched after about 10 days. The worms were kept in a 25-27° C. incubator for storage.
The bioassay is designed to test the ability of the mixture of peptides and chalcone to prevent egg hatching (% unhatched eggs). Each test was performed in a 96-well plate with 10 eggs per well. The eggs were incubated in each treatment for 16 days. Hatched vs unhatched eggs were determined by microscopic images.
(§3) As described earlier, equal number nematodes were incubated in various treatment solutions in a 96-well plate for 5 days and the potency of different combination of nematicides was tested by counting the number of nematodes dead or surviving on Day 5. Similarly, the effect of different combination of nematicide composition on hatching of nematode eggs was also counted.

J2 M. incognita = test: Bioassay for killing J2 juvenile nematodes (% mortality), 96-well plate, 5 days; assay type: in vivo, Meloidogyne incognita; settings: for effectiveness in killing juvenile nematodes: peptide alone (0.8 mg/ml where stated), Day 5
Description: as §1
as §2, with “The eggs were then placed in an incubator at 25-27° C., and juvenile worms (J2 stage) hatched after about 10 days. The worms were kept in a 25-27° C. incubator for storage.” left out
as §3

nematodes = settings: cited from earlier work; for effective concentration for nematicidal activity: peptide alone; for nematicidal activity: peptide individually, 1 mg/ml

Molecule | hatched eggs by Day 16 (M. incognita eggs; chalcone alone, 10^−4-10^−5 M) [%] | death of juvenile nematodes on Day 5 (J2 M. incognita; peptide alone, 0.8 mg/ml) | hatched eggs by Day 16 (M. incognita eggs; peptide alone, 0.8 mg/ml) | effective concentration for nematicidal activity (nematodes) | nematicidal activity (nematodes) [%] | effectiveness in killing juvenile nematodes (J2 M. incognita)
O=C(/C=C/c1ccccc1)c1ccc(Cl)cc1Cl [chalcone 17, (2E)-1-(2,4-Dichlorophenyl)-3-phenyl-2-propen-1-one] | ~50 | – | – | – | – | –
CCOc1ccc(C(=O)/C=C/c2ccccc2)cc1 [chalcone 25, (2E)-1-(4-Ethoxyphenyl)-3-phenyl-2-propen-1-one] | ~50 | – | – | – | – | –
Peptide 2: 15 amino acids DLLRPVVIAPQFSRQ (99-113 amino acid stretch of CED-4 protein, SEQ ID NO. 2) (Caenorhabditis elegans) | – | 60-80% | around 30% | about 1 mg/ml | 100 | –
Peptide 3: 19 amino acids RQMLDRKLLLGNVPKQMTC (112-130 amino acid stretch of CED-4 protein, SEQ ID NO. 3) (Caenorhabditis elegans) | – | – | around 10% | about 1 mg/ml | 100 | less effective
Peptide 12: 12 amino acids FPKFMQLHQKFY (529-540 amino acid stretch of CED-4 protein, SEQ ID NO. 4) (Caenorhabditis elegans) | – | – | around 20% | about 1 mg/ml | 100 | highly effective
